Assay results as given in patent publication US9175036B2, “Antimicrobial water treatment membranes and production thereof” (BEN-GURION UNVERSITY OF THE NEGEV RESEARCH AND DEVELOPMENT …, priority 2009, dated 2015).
In brackets after ≈: the same amount, converted by molar mass. Square brackets hold non-standard residues; d marks the D form. Peptide text beside a SMILES is read from it. βAla = NCCC(=O)O

Columns and labels:
[1] = tested on: proteolytic enzymes (trypsin, chymotrypsin, pronase E); assay type: in vitro ADME
Experimental: Resistance to proteolysis can be determined according to trypsin, chymotrypsin or pronase E assay, as detailed below in the Methods section, namely by adding to each 90 μl of peptide solution, 10 μl of enzyme solution, containing either a mixture of 0.5 μg trypsin (0.05 mg/ml) and 0.5 μg chymotrypsin (0.05 mg/ml) or 4 μg pronase E (0.4 mg/ml) in 0.001M HCl. The enzymatic degradation of the peptide is monitored at controlled temperature of 25° C. A peptide can be considered to be resistant to proteolysis if it withstands this assay for at least 1 week, maintaining at least 90% of its initial concentration after this period.
(§1) Proteolytic Stability Assay of Peptides:
Stock solution (0.56 mg/ml) of each peptide was prepared by dissolving the peptide in PBS (pH=7.4). […] The enzymatic degradation of the peptide was monitored at controlled temperature of 25° C. by RP-HPLC with detection at 220 nm using Phenomenex C18 4.6×250 mm column with 5 μm particle size and 110 Å pore size. […]
Enzymes concentrations were determined by preliminary experiment that was performed to screen for concentrations allowing complete degradation of C-Modelin-1 within 1-2 hours. 10 μl of enzyme solution with varying concentrations were added to 90 μl of peptide solution (0.56 mg/ml) and enzymatic degradation of the peptide was monitored by RP-HPLC. […]

Enterobacter = assay type: cell-based
Experimental: The IC50 is determined by an essay, suitable for the specific film-forming microorganism in question. For example, in the present invention, the Enterobacter assay, which is described in detail in the methods section below, was used to determine the antimicrobial activities of the tested peptides.
Quantitative Biofilm Growth Inhibition Assay in a 96-Wells Microtiter Plate:
Enterobacter culture (50 ml) was grown in tryptic soy broth media (TBS; prepared according to manufacturer instructions) overnight at 25° C. On the next day the turbidity of the culture was measured at 600 nm (Biomate 5 UV-Vis spectrophotometer, Thermo Fisher Scientific, Waltham, Mass.) and, if necessary, TSB was added to dilute the culture until the OD was 1.
Then 96 wells polystyrene microtiter plates (flat bottom, transparent, Becton Dickinson, Franklin Lakes, New-Jersey) were filled as following: Negative control wells (without bacteria) were filled with 125 μl TSB media and 25 μl of DDW:PBS1:1 buffer solution; Positive control wells (without peptide solution) were filled with 110 μl TSB media, 25 μl of DDW:PBS1:1 buffer solution and 15 μl of Enterobacter culture solution; Wells that contained AMPs at different concentrations were filled with 110 μl TSB media, 25 μl of peptide solution and 15 μl of Enterobacter culture solution.
The plates were incubated at 25° C. overnight. On the next day the plates were gently rinsed 5 times with distilled water to remove the planktonic bacteria and then dried at room temperature for 10 minutes. Then the biofilm on the walls of the wells was dyed by adding 200 μl, of 3% crystal violet (CV) to the wells. After 15 minutes at room temperature, the plates were gently rinsed 5 times with distilled water to remove excess dye and dried at room temperature for 10 minutes (Djordjevic, Wiedmann & McLandsborough 2002). The dry plates were filled with 200 μl ethanol, covered and gently agitated (Duomax 1030 rocking platform shaker, Heidolph, Kelheim, Germany) for 1 hour. The absorbance of extracted color was measured in a plate reading spectrophotometer (Infinite M200, Tecan, Mannedorf, Switzerland) at 595 nm.
The effect of linking the arm to a peptide, on the antimicrobial activity of the peptides was assessed by measuring the peptide activity in 96-microtitter plates in solution and comparing to activities of the normal peptides. Experiments were performed in water and in 3% NaCl solution. Table 6 presents the antimicrobial activity (IC50) of peptide-arm systems, in water and in 3% NaCl solution. Values were extracted from dose-response curves.
Different concentration solutions of peptides, bought or prepared as detailed in the methods section above, were prepared by diluting a stock solution with 1% ACN. Stock solution was prepared by dissolving water soluble peptides in DDW:PBS1:1. PBS (pH=7.4) was prepared by adding to 800 ml DDW, 8 grams NaCl, 0.2 grams KCl, 1.44 grams Na2HPO4 and 0.2 grams KH2PO4.
To evaluate whether attachment of a tether to the AMPs has an effect on the inhibitory potency, a PEGylated peptide (HS-PEG-D-Modelin-1) was prepared, and its inhibitory potency compared to that of the ‘normal’ peptide All-D-Modelin-1. Peptides were diluted in 2-fold serial dilutions, and the antibacterial activity of the peptides was determined in sterile 96-multititter plates.

biofilm [2] = test: Biovolume of biofilm on graft-polymerized RO membranes (FIGS. 4-6); assay type: cell-based; conditions: immobilized on RO membrane after graft polymerization and 1,4-butadiamine; FIGS. 4 and 5
Text: FIGS. 4 and 5 show the biovolume of biofilm on RO membranes modified with Cys-Modelin-1, whereas in FIG. 4: (A) is an unmodified membrane (control), (B) is after Graft polymerization (GP), (C) is after GP and 1,4-butadiamine, (D) is after GP, 1,4-butadiamine and MI (maleimide-hexanoic acid), and (E) is after GP, 1,4-butadiamine, MI and C-Modelin-1.
Another example for immobilization through multivalent system is shown in FIG. 6, showing the volume of the biofilm by graft polymerization with 0.2:0.2 M MA:PEGM and immobilization with All-D-Cys-Modelin-1. […] The inhibition was very much dependent of the graft polymerization step: Grafting by 0.2:0.2 M of monomers PEGMA:MA (see Scheme 6 for monomer structures) gave the best results.

pronase E = assay type: in vitro ADME
Experimental: as §1
Stock solution (0.56 mg/ml) of each peptide was prepared by dissolving the peptide in PBS (pH=7.4). To each 90 μl of peptide solution 10 μl of enzyme solution, containing either a mixture of 0.5 μg trypsin (0.05 mg/ml) and 0.5 μg chymotrypsin (0.05 mg/ml) or 4 μg pronase E (0.4 mg/ml) in 0.001M HCl, was added. The enzymatic degradation of the peptide was monitored at controlled temperature of 25° C. by RP-HPLC with detection at 220 nm using Phenomenex C18 4.6×250 mm column with 5 μm particle size and 110 Å pore size. Elution gradient was: t=0 minutes, B=15%; t=5 minutes, B=15%; t=40 minutes, B=70%; t=42 minutes, B=95%; t=52 minutes, B=95% (flow rate 1 ml/minute).
Enzymes concentrations were determined by preliminary experiment that was performed to screen for concentrations allowing complete degradation of C-Modelin-1 within 1-2 hours. 10 μl of enzyme solution with varying concentrations were added to 90 μl of peptide solution (0.56 mg/ml) and enzymatic degradation of the peptide was monitored by RP-HPLC.
The enzymatic degradation was monitored at a fixed temperature of 25° C. by RP-HPLC at 220 nm, as described before. Elution gradient started with 85% A/15% B for 5 minutes continued with 30% A/70% B for 35 minutes and ended with 5% A-95% B for 12 minutes.
All the enzymes were used in concentrations allowing complete degradation of C-Modelin-1 within […].

biofilm [3] = test: Confocal microscope analysis of biofilm developed on modified RO membranes; assay type: cell-based; conditions: biofilm on RO membrane modified with the peptide
Experimental: b) Quantitative Measurements:
For biofilm growth measurements, modified membranes were tested in static conditions and in a flow-through system.
For static conditions membranes were glued with RTV 186 glue to a 1 cm×1 cm glass slides and were incubated in 24-wells plate, containing Green fluorescent protein (GFP) expressing Pseudomonas aeruginosa culture, for 18 hours (37° C.). Then, the membranes were washed with DDW to remove planktonic bacteria and the formed biofilm was detected by Leica DM 2500 confocal laser scanning microscope (CLSM, Wetzlar, Germany).
For the flow-through system, 1 cm×1 cm membranes were glued to a 2.6 cm×7.6 cm glass slide and the slide was placed in a flow cell. First, GFP expressing Pseudomonas aeruginosa was introduced to the cell and incubated for 1 hour. Then, the planktonic bacteria were washed out and sterile growth media was brought in to the cell with 50 ml/h flow rate. After 24 hours the sample was removed from the cell and biofilm fluorescence was detected by confocal laser scanning microscope. The dyed membranes were analyzed by a confocal laser scanning microscope.
Quantitative and qualitative indications for biofilm formation on modified vs. non modified RO membranes were checked.
The results of the confocal microscope analysis of the biofilm that developed on the different membranes showing reduced biofilm formation on the modified membranes are summarized in Table 15.

| Compound | IC50 (Enterobacter) [µg/mL] | reduced biofilm growth (biofilm [2]) [%] | digestion first detected after (pronase E) [min] | peptides completely degraded after (pronase E) [min] | IC50 Normal conditions (Enterobacter) [µg/mL] | Biovolume (biofilm [3]) | Thickness (biofilm [3]) [μm] | also measured |
| --- | --- | --- | --- | --- | --- | --- | --- | --- |
| CC(C)C[C@@H](NC(=O)[C@@H](CCCCN)NC(=O)[C@H](N)CS)C(=O)N[C@H](Cc1c[nH]c2ccccc12)C(=O)N[C@H](CCCCN)C(=O)N[C@H](CCCCN)C(=O)N[C@H](Cc1c[nH]c2ccccc12)C(=O)N[C@H](C)C(=O)N[C@H](CCCCN)C(=O)N[C@H](CCCCN)C(=O)N[C@H](Cc1c[nH]c2ccccc12)C(=O)N[C@H](CC(C)C)C(=O)N[C@H](CCCCN)C(=O)N[C@H](CC(C)C)C(=O)N[C@H](Cc1c[nH]c2ccccc12)C(=O)N[C@H](CCCCN)C(=O)N[C@H](C)C(=O)N[C@H](Cc1c[nH]c2ccccc12)C(=O)O [All-D C-Modelin-1, CKLWKKWAKKWLKLWKAW] (H-[dC][dK][dL][dW][dK][dK][dW][dA][dK][dK][dW][dL][dK][dL][dW][dK][dA][dW]-OH) | 10 (≈ 4.11 µM) |  |  |  |  |  |  | higher stability compared with the unprotected Cys-Modelin-1 [1]: over 100 fold; remained stable when treated with the proteolytic enzymes [1]: over 2 weeks |
| CC(C)C[C@H](NC(=O)[C@H](CCCCN)NC(=O)[C@H](CC(C)C)NC(=O)[C@H](Cc1c[nH]c2ccccc12)NC(=O)[C@H](CCCCN)NC(=O)[C@H](CCCCN)NC(=O)[C@H](C)NC(=O)[C@H](Cc1c[nH]c2ccccc12)NC(=O)[C@H](CCCCN)NC(=O)[C@H](CCCCN)NC(=O)[C@H](Cc1c[nH]c2ccccc12)NC(=O)[C@H](CC(C)C)NC(=O)[C@H](CCCCN)NC(=O)[C@@H](N)CS)C(=O)N[C@@H](Cc1c[nH]c2ccccc12)C(=O)N[C@@H](CCCCN)C(=O)N[C@@H](C)C(=O)N[C@@H](Cc1c[nH]c2ccccc12)C(=O)O [C-Modelin-1, CKLWKKWAKKWLKLWKAW] (H-CKLWKKWAKKWLKLWKAW-OH) | 11 (≈ 4.52 µM) | 65 | 5 | 135 |  |  |  |  |
| CC(C)C[C@H](NC(=O)[C@H](CCCCN)NC(=O)[C@H](CC(C)C)NC(=O)[C@H](Cc1c[nH]c2ccccc12)NC(=O)[C@H](CCCCN)NC(=O)[C@H](CCCCN)NC(=O)[C@H](C)NC(=O)[C@H](Cc1c[nH]c2ccccc12)NC(=O)[C@H](CCCCN)NC(=O)[C@H](CCCCN)NC(=O)[C@H](Cc1c[nH]c2ccccc12)NC(=O)[C@H](CC(C)C)NC(=O)[C@H](CCCCN)NC(=O)[C@@H](N)CS)C(=O)N[C@@H](Cc1c[nH]c2ccccc12)C(=O)N[C@@H](CCCCN)C(=O)N[C@@H](C)C(=O)N[C@@H](Cc1c[nH]c2ccccc12)C(=O)NCCC(=O)O [C-Modelin-1-βAla, CKLWKKWAKKWLKLWKAW-βAla] (H-CKLWKKWAKKWLKLWKAW[βAla]-OH) | 4 (≈ 1.6 µM) |  | 5 | 135 |  |  |  |  |
| N=C(N)NCCC[C@H](NC(=O)CNC(=O)CNC(=O)CNC(=O)[C@@H](N)CS)C(=O)N[C@@H](CCCNC(=N)N)C(=O)N[C@@H](Cc1c[nH]c2ccccc12)C(=O)N[C@@H](Cc1c[nH]c2ccccc12)C(=O)N[C@@H](CCCNC(=N)N)C(=O)N[C@@H](Cc1ccccc1)C(N)=O [CG3-Hexapeptide-4, CGGGRRWWRF-NH2] (H-CGGGRRWWRF-NH2; N-terminus assumed) |  |  |  |  | 160 (≈ 125 µM) | 8.9 * 10^4 μm^3 | 9.5 | IC50 in 3% Aqueous NaCl (Enterobacter): 150 µg/mL (≈ 117 µM) |
| CC(C)C[C@H](NC(=O)[C@H](CCCCN)NC(=O)CNC(=O)CNC(=O)CNC(=O)CNC(=O)[C@@H](N)CS)C(=O)N[C@@H](Cc1c[nH]c2ccccc12)C(=O)N[C@@H](CCCCN)C(=O)N[C@@H](CCCCN)C(=O)N[C@@H](Cc1c[nH]c2ccccc12)C(=O)N[C@@H](C)C(=O)N[C@@H](CCCCN)C(=O)N[C@@H](CCCCN)C(=O)N[C@@H](Cc1c[nH]c2ccccc12)C(=O)N[C@@H](CC(C)C)C(=O)N[C@@H](CCCCN)C(=O)N[C@@H](CC(C)C)C(=O)N[C@@H](Cc1c[nH]c2ccccc12)C(=O)N[C@@H](CCCCN)C(=O)N[C@@H](C)C(=O)N[C@@H](Cc1c[nH]c2ccccc12)C(=O)O [CG4-Modelin-1] (H-CGGGGKLWKKWAKKWLKLWKAW-OH; N-terminus assumed) |  |  |  |  | 100 (≈ 37.6 µM) | 9.3 * 10^4 μm^3 | 9.5 |  |
| O=C(O)CCCCCN1C(=O)C=CC1=O [maleimide-hexanoic acid, 6-maleimidohexanoic acid] |  | 95 |  |  |  |  |  |  |
